Data set [1] is described as follows: Acid dissociation constant was determined. The data set is classed as ADME.
Data set [2] concerns the target Sodium/potassium-transporting ATPase. Put plainly: Displacement of [3H]ouabain from dog kidney Na+/K+ ATPase. The class given is protein-complex assay, Canis lupus familiaris.

In general, pKa refers to the negative logarithm of the acid dissociation constant. A low value points to a stronger acid or weaker base. Regarding `C[C@]12CC[C@H](O)C[C@H]1CC[C@@H]1[C@@H]2CC[C@]2(C)[C@@H](/C=N/Nc3ncccn3)CC[C@]12O`, the pKa in data set [1] is 3.44. Also, in data set [2], the “-Log IC50” value came to 4.6.
In data set [1], `C[C@]12CC[C@H](O)C[C@H]1CC[C@@H]1[C@@H]2CC[C@]2(C)[C@@H](/C=N/NC3=NC(=O)CN3)CC[C@]12O` returned a pKa of 3.58. Also, the “-Log IC50” value in data set [2] turned out to be 4.7.
For `C[C@]12CC[C@H](O)C[C@H]1CC[C@@H]1[C@@H]2CC[C@]2(C)[C@@H](/C=N/N=C(N)N)CC[C@]12O.Cl` the same measures were 9.35 and 7.
`C[C@]12CC[C@H](O)C[C@H]1CC[C@@H]1[C@@H]2CC[C@]2(C)[C@@H](/C=N/NC3=NCCCN3)CC[C@]12O`: the pKa in data set [1] was determined as 10.4. Further, in data set [2], the “-Log IC50” value was found to be 6.6.
With `C/N=C(\C[N+](=O)[O-])N/N=C/[C@H]1CC[C@]2(O)[C@@H]3CC[C@@H]4C[C@@H](O)CC[C@]4(C)[C@H]3CC[C@]12C`, the pKa in data set [1] stood at 2.37. Besides, the “-Log IC50” value in data set [2] was 4.5.
`C[C@]12CC[C@H](O)C[C@H]1CC[C@@H]1[C@@H]2CC[C@]2(C)[C@@H](/C=N/N=C(\N)Nc3ccccc3)CC[C@]12O`: the pKa in data set [1] turned out to be 8.62. Also, the “-Log IC50” value in data set [2] is given as 5.2.
For `CSC(=N)N/N=C/[C@H]1CC[C@]2(O)[C@@H]3CC[C@@H]4C[C@@H](O)CC[C@]4(C)[C@H]3CC[C@]12C` the same measures were 5.76 and 5.7.
For `C[C@]12CC[C@H](O)C[C@H]1CC[C@@H]1[C@@H]2CC[C@]2(C)[C@@H](/C=N/NC(N)=O)CC[C@]12O`, in data set [1], the pKa came out at 1.78. The “-Log IC50” value in data set [2] is recorded as 5.1.
`C[C@]12CC[C@H](O)C[C@H]1CC[C@@H]1[C@@H]2CC[C@]2(C)[C@@H](/C=N/NC3=NCCN3)CC[C@]12O` gave a pKa in data set [1] of 8.42. For the same molecule, the “-Log IC50” value in data set [2] was 6.7.
`C[C@]12CC[C@H](O)C[C@H]1CC[C@@H]1[C@@H]2CC[C@]2(C)[C@@H](/C=N/Nc3ccccn3)CC[C@]12O` had a pKa in data set [1] of 6.34. Further, in data set [2], the “-Log IC50” value amounted to 5.7.
For `C[C@]12CC[C@H](O)C[C@H]1CC[C@@H]1[C@@H]2CC[C@]2(C)[C@@H](/C=N/N=C(\N)S)CC[C@]12O` the same measures were 0.86 and 4.7.
Consider `C/C(=N\N=C(N)N)[C@H]1CC[C@]2(O)[C@@H]3CC[C@@H]4C[C@@H](O)CC[C@]4(C)[C@H]3CC[C@]12C`, for which the pKa in data set [1] stood at 9.49. Moreover, in data set [2], the “-Log IC50” value is 6.7.
`CN1CCN=C1N/N=C/[C@H]1CC[C@]2(O)[C@@H]3CC[C@@H]4C[C@@H](O)CC[C@]4(C)[C@H]3CC[C@]12C`: in data set [1], the pKa is 8.05. Further, the “-Log IC50” value in data set [2] is recorded as 6.
